Test results as given in patent US20200031778A1, “NOVEL 5-SUBSTITUTED IMIDAZOLYLMETHYL DERIVATIVES” (Bayer CropScience Aktiengesellschaft, priority 2016, published 2020).

Legend:
[1] = Log P by HPLC on reversed phase columns (EEC directive 79/831 Annex V.A8; methods [a], [b], [c]); assay type: physicochemical; settings: reversed phase HPLC column; method [a]: LC-UV, acidic range, 0.1% formic acid in water and acetonitrile as eluent (linear gradient from 10% to 95% acetonitrile)
Method in brief: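 Log P derived from retention times, interpolated linearly between bracketing straight-chain alkan-2-ones (3–16 carbons) of known Log P. Eluents ran acetonitrile 10% to 95% against water with 0.1% formic acid ([a], acidic), 0.001 M ammonium acetate ([b], neutral) or 0.1% phosphoric acid ([c], acidic); UV read-out.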

Puccinia recondita = experiment: Example IX-A: in vivo preventive test on Puccinia recondita (brown rust on wheat); settings: 264 h, compounds of formula IX, 500 ppm of active ingredient, wheat plants, preventive spray, evaluated 11 days after inoculation, read-out: efficacy
Experimental: Example IX-A: In Vivo Preventive Test on Puccinia Recondita (Brown Rust on Wheat)
(§1) The active ingredients are made soluble and homogenized in a mixture of Dimethyl sulfoxide/Acetone/Tween® 80 and then diluted in water to the desired concentration.
The young plants of wheat are treated by spraying the active ingredient prepared as described above. Control plants are treated only with an aqueous solution of Acetone/Dimethyl sulfoxide/Tween® 80.
After 24 hours, the plants are contaminated by spraying the leaves with an aqueous suspension of Puccinia recondita spores. The contaminated wheat plants are incubated for 24 hours at 20° C. and at 100% relative humidity and then for 10 days at 20° C. and at 70-80% relative humidity.
(§2) The test is evaluated 11 days after the inoculation. 0% means an efficacy which corresponds to that of the control plants while an efficacy of 100% means that no disease is observed.

Septoria tritici = experiment: Example IX-B: in vivo preventive test on Septoria tritici (leaf spot on wheat); settings: Zymoseptoria tritici, 576 h; compounds of formula IX; 500 ppm of active ingredient; wheat plants, preventive spray; evaluated 24 days after inoculation; read-out: efficacy
Method in brief: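 Wheat seedlings sprayed preventively with compound dissolved in DMSO/acetone/Tween 80 and diluted in water; solvent-only controls. Spore suspension of S. tritici sprayed 24 h later; 72 h at 18 °C/100% RH, then 21 days at 20 °C/90% RH. Efficacy scored 24 days post-inoculation, 0% = control, 100% = no disease.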

Sphaerotheca fuliginea = experiment: Example IX-C: in vivo preventive test on Sphaerotheca fuliginea (powdery mildew on cucurbits); settings: Podosphaera fuliginea, 360 h; compounds of formula IX; 500 ppm of active ingredient; gherkin plants, preventive spray; evaluated 15 days after inoculation; read-out: efficacy
Method in brief: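 Young gherkin plants sprayed with compound in DMSO/acetone/Tween 80 diluted in water, then inoculated 24 h later with Sphaerotheca fuliginea spores. Kept 72 h at 18 °C/100% RH, then 12 days at 20 °C/70-80% RH; efficacy scored 15 days post-inoculation, 0% = control, 100% = no disease.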

Uromyces appendiculatus = experiment: Example IX-D: in vivo preventive test on Uromyces appendiculatus (bean rust); settings: 264 h, compounds of formula IX, 500 ppm of active ingredient, bean plants, preventive spray, evaluated 11 days after inoculation, read-out: efficacy
Experimental: Example IX-D: In Vivo Preventive Test on Uromyces Appendiculatus (Bean Rust)
as §1
The young plants of bean are treated by spraying the active ingredient prepared as described above. Control plants are treated only with an aqueous solution of Acetone/Dimethyl sulfoxide/Tween® 80.
After 24 hours, the plants are contaminated by spraying the leaves with an aqueous suspension of Uromyces appendiculatus spores. The contaminated bean plants are incubated for 24 hours at 20° C. and at 100% relative humidity and then for 10 days at 20° C. and at 70-80% relative humidity.
as §2
control plants while an efficacy of 100% means that no disease was observed.

`N#Cc1cncn1CC(=O)c1ccc(Oc2ccc(C(F)(F)F)cc2)cc1C(F)(F)F` [IX-69] gave a chromatographic logP [1] of 3.69, a pest or weed control at 500 ppm (Puccinia recondita) of 90 to 100% and a pest or weed control at 500 ppm (Septoria tritici) of 90 to 100%. The pest or weed control at 500 ppm (Sphaerotheca fuliginea) was 90 to 100% and the pest or weed control at 500 ppm (Uromyces appendiculatus) was 90 to 100%.
In the case of `O=C(Cn1cncc1F)c1cnc(Oc2ccc(C(F)(F)F)cc2)cc1Br` [IX-111], the chromatographic logP [1] is reported as 2.64, the pest or weed control at 500 ppm (Puccinia recondita) is reported as 80 to 89% and the pest or weed control at 500 ppm (Septoria tritici) is reported as 90 to 100%. It also gave a pest or weed control at 500 ppm (Sphaerotheca fuliginea) of 90 to 100% and a pest or weed control at 500 ppm (Uromyces appendiculatus) of 90 to 100%.
For `O=C(Cn1cncc1Cl)c1cnc(Oc2ccc(Cl)cc2)cc1Cl` [IX-23], the chromatographic logP [1] was 2.75, the pest or weed control at 500 ppm (Puccinia recondita) was 80 to 89% and the pest or weed control at 500 ppm (Septoria tritici) was 90 to 100%. It also gave a pest or weed control at 500 ppm (Sphaerotheca fuliginea) of 90 to 100% and a pest or weed control at 500 ppm (Uromyces appendiculatus) of 90 to 100%.
Molecule `O=C(Cn1cncc1F)c1ccc(Oc2ccc(Cl)cc2)nc1F` [IX-88] has a chromatographic logP [1] of 2.14, a pest or weed control at 500 ppm (Puccinia recondita) of 70 to 79% and a pest or weed control at 500 ppm (Septoria tritici) of 90 to 100%. For the same molecule, the pest or weed control at 500 ppm (Sphaerotheca fuliginea) was 90 to 100% and the pest or weed control at 500 ppm (Uromyces appendiculatus) was 80 to 89%.
With `O=C(Cn1cncc1Cl)c1ccc(Oc2ccc(Cl)cc2)cc1C(F)(F)F` [IX-30] the chromatographic logP [1] was 3.37, the pest or weed control at 500 ppm (Puccinia recondita) was 70 to 79% and the pest or weed control at 500 ppm (Septoria tritici) was 90 to 100%. The pest or weed control at 500 ppm (Sphaerotheca fuliginea) was 80 to 89% and the pest or weed control at 500 ppm (Uromyces appendiculatus) was 90 to 100%.
In the case of `O=C(Cn1cncc1Br)c1ccc(Oc2ccc(I)cc2)cc1Br` [IX-42], the chromatographic logP [1] is reported as 3.55, the pest or weed control at 500 ppm (Puccinia recondita) is reported as 80 to 89% and the pest or weed control at 500 ppm (Septoria tritici) is reported as 90 to 100%. It also gave a pest or weed control at 500 ppm (Sphaerotheca fuliginea) of 90 to 100% and a pest or weed control at 500 ppm (Uromyces appendiculatus) of 90 to 100%.
In the case of `N#Cc1cncn1CC(=O)c1ccc(Oc2ccc(Cl)cc2)cc1C(F)(F)F` [IX-54], the chromatographic logP [1] is reported as 3.55, the pest or weed control at 500 ppm (Puccinia recondita) is reported as 90 to 100% and the pest or weed control at 500 ppm (Septoria tritici) is reported as 90 to 100%. It also gave a pest or weed control at 500 ppm (Sphaerotheca fuliginea) of 90 to 100% and a pest or weed control at 500 ppm (Uromyces appendiculatus) of 70 to 79%.
With `N#Cc1cncn1CC(=O)c1cnc(Oc2ccc(C(F)(F)F)cc2)cc1Br` [IX-115] the chromatographic logP [1] was 3.37, the pest or weed control at 500 ppm (Puccinia recondita) was 90 to 100% and the pest or weed control at 500 ppm (Septoria tritici) was 90 to 100%. It also gave a pest or weed control at 500 ppm (Sphaerotheca fuliginea) of 90 to 100% and a pest or weed control at 500 ppm (Uromyces appendiculatus) of 90 to 100%.
Molecule `O=C(Cn1cncc1F)c1ccc(Oc2ccc(Cl)cc2)cc1Cl` [IX-65] has a chromatographic logP [1] of 2.52, a pest or weed control at 500 ppm (Puccinia recondita) of 90 to 100% and a pest or weed control at 500 ppm (Septoria tritici) of 90 to 100%. It also gave a pest or weed control at 500 ppm (Sphaerotheca fuliginea) of 90 to 100% and a pest or weed control at 500 ppm (Uromyces appendiculatus) of 90 to 100%.
For `N#Cc1cncn1CC(=O)c1cnc(Oc2ccc(C(F)(F)F)cc2)cc1C(F)(F)F` [IX-89], the chromatographic logP [1] was 3.42, the pest or weed control at 500 ppm (Puccinia recondita) was 80 to 89% and the pest or weed control at 500 ppm (Septoria tritici) was 90 to 100%. It also gave a pest or weed control at 500 ppm (Sphaerotheca fuliginea) of 90 to 100% and a pest or weed control at 500 ppm (Uromyces appendiculatus) of 90 to 100%.
For `O=C(Cn1cncc1Cl)c1ccc(Oc2ccc(Br)cc2)cc1C(F)(F)F` [IX-29], the chromatographic logP [1] was 3.37, the pest or weed control at 500 ppm (Puccinia recondita) was 90 to 100% and the pest or weed control at 500 ppm (Septoria tritici) was 90 to 100%. It also gave a pest or weed control at 500 ppm (Sphaerotheca fuliginea) of 80 to 89% and a pest or weed control at 500 ppm (Uromyces appendiculatus) of 80 to 89%.
In the case of `O=C(Cn1cncc1Cl)c1ccc(Oc2ccc(I)cc2)cc1Br` [IX-38], the chromatographic logP [1] is reported as 3.35, the pest or weed control at 500 ppm (Puccinia recondita) is reported as 90 to 100% and the pest or weed control at 500 ppm (Septoria tritici) is reported as 90 to 100%. For the same molecule, the pest or weed control at 500 ppm (Sphaerotheca fuliginea) was 90 to 100% and the pest or weed control at 500 ppm (Uromyces appendiculatus) was 90 to 100%.
`N#Cc1cncn1CC(=O)c1ccc(Oc2ccc(I)cc2)cc1F` [IX-63] gave a chromatographic logP [1] of 3.48, a pest or weed control at 500 ppm (Puccinia recondita) of 90 to 100% and a pest or weed control at 500 ppm (Septoria tritici) of 90 to 100%. It also gave a pest or weed control at 500 ppm (Sphaerotheca fuliginea) of 90 to 100% and a pest or weed control at 500 ppm (Uromyces appendiculatus) of 90 to 100%.
Work on `N#Cc1cncn1CC(=O)c1ccc(Oc2ccc(Cl)cc2)cc1Cl` [IX-31] yielded a chromatographic logP [1] of 3.46, a pest or weed control at 500 ppm (Puccinia recondita) of 90 to 100% and a pest or weed control at 500 ppm (Septoria tritici) of 90 to 100%. It also gave a pest or weed control at 500 ppm (Sphaerotheca fuliginea) of 90 to 100% and a pest or weed control at 500 ppm (Uromyces appendiculatus) of 90 to 100%.
Work on `O=C(Cn1cncc1Cl)c1ccc(Oc2ccc(Cl)cc2)cc1Cl` [IX-04] yielded a chromatographic logP [1] of 3.17, a pest or weed control at 500 ppm (Puccinia recondita) of 90 to 100% and a pest or weed control at 500 ppm (Septoria tritici) of 90 to 100%. It also gave a pest or weed control at 500 ppm (Sphaerotheca fuliginea) of 90 to 100% and a pest or weed control at 500 ppm (Uromyces appendiculatus) of 90 to 100%.
